Test results from US20110092484A1, “THERAPEUTIC OR PROPHYLACTIC AGENT FOR CEREBRAL ANEURYSM” (NIPPON CHEMIPHAR CO., LTD., priority 2007, published 2011).
Entries after “also recorded” stand apart in the source; their conditions may differ.

What was measured:
cathepsin B [1] = molecular target: cathepsin B (Homo sapiens, UniProt P07858); test: Inhibition of cathepsin B (IC50); format: biochemical; details: read-out: IC 50 for cathepsin B
cathepsin S = cathepsin S (Homo sapiens, UniProt P25774); test: Inhibition of cathepsin S (IC50); format: biochemical; details: read-out: IC 50 for cathepsin S
Chain of cathepsin S (P25774 115-331, species assumed): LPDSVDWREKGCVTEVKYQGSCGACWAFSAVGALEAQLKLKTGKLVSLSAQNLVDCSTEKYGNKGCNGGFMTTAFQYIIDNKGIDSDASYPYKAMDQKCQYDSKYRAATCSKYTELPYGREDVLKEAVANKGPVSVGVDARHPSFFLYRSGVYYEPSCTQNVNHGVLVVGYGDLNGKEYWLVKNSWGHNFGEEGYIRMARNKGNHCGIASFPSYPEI

matrix metalloproteases = test: Inhibition of other proteases; format: biochemical
[2] = test system: experimentally induced cerebral aneurysms; test: Experimentally induced cerebral aneurysm model, histopathology of the ACA/OA bifurcation; format: in vivo, SD (Sprague-Dawley) rats
Method: After the induction of pentobarbital anesthesia (50 mg/kg), the left common carotid artery and posterior branches of the bilateral renal arteries were ligated at the same time with 10-0 nylon in 7 week-old male SD (Sprague-Dawley) rats. Animals were fed special food containing 8% sodium chloride and 0.12% β-aminopropionitrile (an inhibitor of lysyl oxidase that catalyzes the cross-linking of collagen and elastin). Blood pressure was measured by tail-cuff method. Animal care and experiments complied with Japanese community standards on the care and use of laboratory animals.
A total of 18 rats were orally given 50 mg/kg/day of the inhibitor. Immediately after aneurysm induction, rats were fed food with (n=18) or without (n=21) 50 mg/kg/day of the inhibitor, and sacrificed after three months. The ACA/OA bifurcation was stripped and observed under a light microscope after Elastica van Gieson staining. Early aneurysmal change refers to a lesion with the discontinuity of the internal elastic lamina without apparent outward bulging of the arterial wall. Advanced aneurysm refers to an obvious outward bulging of the arterial wall with the fragmentation or disappearance of the internal elastic lamina. After immunohistochemistry for CD68, the number of CD68-positive cells was counted on each section. Three independent researchers assessed the histopathological changes.
The values were expressed as means Standard deviation (SD). Statistical analysis was performed by using Student's t-test for a two-group comparison and one-way ANOVA followed by Fisher test for a multiple comparison. The incidence of aneurysmal changes was analyzed by the use of Fisher's exact test. Differences were considered statistically significant at P<0.05.

[3] = Serum concentration of the inhibitor in treated rats; format: in vivo; details: 50 mg/kg/day orally in food
CD68-positive cells = test: Macrophage infiltration around aneurysms (CD68-positive cells counted); format: in vivo, rats; details: 50 mg/kg/day, n=10; control 5.3±1.5; did not differ
Method: Three months after aneurysm induction, all rats (n=10) were deeply anesthetized and perfused transcardinally with 4% paraformaldehyde. As a control, age-matched male Sprague-Dawley rats were euthanized as described above. The anterior cerebral artery/olfactory artery (ACA/OA) bifurcation was stripped, embedded and cut into 5 μm sections. After blocking with 5% Donkey serum, primary antibodies were incubated for one hour at room temperature followed by incubation with fluorescence labeled secondary antibodies for one hour at room temperature. The secondary antibodies were FITC-conjugated donkey anti-goat IgG antibody, FITC-conjugated donkey anti-rabbit IgG antibody, Cy3-conjugated donkey anti-mouse IgG antibody, and Cy3-conjugated donkey anti-rabbit IgG antibody. Then the slides were covered with PERMAFLUOR (Immunotec) and excited for fluorescence by illumination through a fluorescence microscope system (Olympus). […]
A total of 18 rats were orally given 50 mg/kg/day of the inhibitor. […] After immunohistochemistry for CD68, the number of CD68-positive cells was counted on each section. Three independent researchers assessed the histopathological changes.

cathepsin B [4] = molecular target: T1, cathepsin B (Rattus norvegicus, UniProt P00787); test: Cathepsin B activity in aneurysmal walls, azo-coupling method (in situ); format: in vivo; details: three months after aneurysm induction, treated rats
T1 construct: from tissue; host or cells: frozen sections of rat cerebral aneurysmal wall (Sprague-Dawley rats)
T1 sequence (P00787 80-333): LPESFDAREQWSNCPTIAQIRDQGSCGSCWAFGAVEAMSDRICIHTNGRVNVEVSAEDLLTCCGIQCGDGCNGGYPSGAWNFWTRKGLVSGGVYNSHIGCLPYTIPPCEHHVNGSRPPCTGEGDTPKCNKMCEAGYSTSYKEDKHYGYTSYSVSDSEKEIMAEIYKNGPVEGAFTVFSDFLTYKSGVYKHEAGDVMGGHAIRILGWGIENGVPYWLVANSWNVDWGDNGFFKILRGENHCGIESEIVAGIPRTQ
Method: In order to examine cathepsin B activity in aneurysmal walls, azo-coupling method (in situ) was performed. Three months after aneurysm induction, rats (n=6 in each group) were euthanized as described above. Five μm frozen sections were incubated for one hour at 37° C. with 3.2 mM Z-arg-arg-4-Methoxy-2-Naphthylamine (Cosmo Bio) in 100 mM potassium phosphate buffer containing 10% polyvinyl alcohol, 10 mM dithiothreitol, 2.7 mM L-Cysteine and 1.3 mM EDTA (Sigma). After then, the slides were placed in 125 mg/ml of N-ethylmaleimide in potassium phosphate buffer following at 55° C. for 5 minutes, followed by incubation with Fast Blue Solution (Fast Blue 21 mg/100 ml of potassium phosphate solution, Sigma) for thirty minutes and 0.1M cupric sulfate solution for 15 minutes at room temperature. After washing with physiological saline, the slides were covered with PERMAFLUOR (Immunotec).

collagenase I = test: Collagenase activity in lysate of the whole Willis ring, type I collagen; format: in vivo; details: treated rats n=5, P=0.014
Method: (§1) One hundred fifty […] of protein was used in one experiment (n=5 in each group). Collagenase activity was measured using Collagenase Activity Measurement Kit (Life Laboratory). Briefly, fluorescence labeled type I or IV collagen was incubated with the lysate of the whole Willis ring for one hour at 37° C. Undigested fluorescence labeled collagen was extracted in ethanol solution and measured by fluorospectrometer with excitation 496 nm and measurement 520 nm. Collgenase activity (U/ml) was calculated by the fluorescence intensity according to the formula given in the manufacture's direction.

collagenase IV = test: Collagenase activity in lysate of the whole Willis ring, type IV collagen; format: in vivo; details: treated rats n=5, P=0.044
Method: as §1

CC(C)COC[C@H](CC(C)C)NC(=O)[C@H]1O[C@@H]1C(=O)O [cysteine protease inhibitor, monosodium (2S,3S)-3-[[(1S)-1-isobutoxymethyl-3-methylbutyl]carbamoyl]-oxirane-2-carboxylate]
IC50 (cathepsin B [1]): 284 nM
IC50 (cathepsin S): 186 nM
Inhibition of other proteases such as matrix metalloproteases (matrix metalloproteases): did not inhibit
Rats that developed advanced aneurysms ([2]; 50 mg/kg/day in food, three months after aneurysm induction, control 19 of 21): 5 of 10
Rats that showed early aneurysmal changes ([2]; 50 mg/kg/day in food, three months after aneurysm induction, of 10 rats, control 2 of 21): 4 rats
Incidence of all aneurysmal changes versus control group ([2]; 50 mg/kg/day, three months): not different
Rate (incidence) of advanced aneurysms versus control group ([2]; 50 mg/kg/day, three months, P=0.022): significantly lower; also recorded: dramatically reduced
Serum concentration [3]: 628.5 ± 22.3 nM
Macrophage infiltration per 50 μm×50 μm field around aneurysms (CD68-positive cells): 4.9±1.7 cells/field
Cathepsin B activity at the aneurysmal walls versus untreated aneurysm rats (cathepsin B [4]): reduced
Collagenase I activity versus control group (collagenase I): significantly lower
Collagenase IV activity versus control group (collagenase IV): significantly lower
